{"source": "patent US8580732B2", "about": "“Peptide therapy for hyperglycemia” (Duke University, priority 2009, dated 2013)", "format_in_all_cases": "cell-based", "key": {"isolated rat islets": {"system": "isolated rat islets", "assay": "Etoposide-induced apoptosis, Annexin V staining by flow cytometry, isolated rat islets", "conditions": "72 hr", "protocol": "Pools of 50 islets were treated with DMSO, etoposide (0.2 mM) or camptothecin (10 μM) for 72 hrs as indicated. Islets were co-incubated with peptide (50 nM TLQP-21, 50 nM exendin-4), H89 (concentration), and/or LY294002 (concentration) where indicated. Islets were dispersed using 0.05% trypsin/EDTA (Sigma) diluted 1:1 with cell dissociation buffer (Sigma) for 5-10 min at 37 C following gentle pipetting. Islets were recovered by centrifugation and stained with FITC-conjugated Annexin V and propidium iodide (Roche) according to the manufacturer's specifications. Data were collected using a FACScan analyzer and analyzed using WinMDI 2.9 software."}, "primary rat islets [1]": {"system": "primary rat islets", "assay": "Glucose-stimulated insulin secretion (GSIS), static incubation, primary rat islets", "conditions": "16.7 mM Glc", "protocol": "(§1) 832/3 and 832/13 cells derived from the parental INS-1 cell line were cultured as previously described (REF-Hohmeier/Wolheim). Pancreatic islets were isolated from male Sprague-Dawley rats according to standard procedures (See, e.g., Ronnebaum et al., (2006) J. Biol. Chem. 281: 30593-30602). For cell culture experiments, TLQP-21 was purchased from Phoenix Pharmaceuticals. For animal studies, TLQP-21 was synthesized by GenScript Corporation. AQEE-30 was a kind gift of Dr. Yun-Ping (Merck Research Laboratories).\nHuman VGF cDNA was purchased from Open Biosystems and subcloned into pAC.CMV using PCR engineered restriction sites. Recombinant adenovirus was generated as previously described (REF). Adenoviruses expressing Nkx6.1, Pdx-1, GFP, beta-galactosidase have been described elsewhere (REF). […]\nIslets: 3 groups of 20 islets were washed with phosphate-buffered saline (PBS) and incubated in secretion assay buffer (SAB; 114 mM NaCl, 4.7 mM KCl, 1.2 mM […], 1.16 mM MgSO4, 25 mM HEPES pH 7.2, 2.5 mM CaCl2, 0.2% bovine serum albumin (Gibco), 25.5 mM NaHCO3) containing 2.5 mM Glc for 1 hr at 37° C. […] Islets were lysed in RIPA buffer containing 5 mM EDTA and total protein determined by BCA (Pierce). Insulin was measured from SAB using the Coat-a-Count kit (Siemens). Insulin content was determined from a 1:100 dilution of total protein."}, "832/3 cells": {"system": "832/3 cells", "assay": "Glucose-stimulated insulin secretion (GSIS), static incubation, 832/3 cells", "conditions": "12 mM Glc, concentrations that augment insulin release in rat islets", "protocol": "as §1\n832/3 cells were plated in triplicate per condition in 12-well dishes and assayed at confluence. Cells were washed in SAB buffer and pre-incubated for 1.5 hr in SAB containing 2.5 mM Glc. Insulin was collected by static incubation in SAB containing 2.5 mM Glc for 2 hrs at 37° C. (basal) followed by incubation in SAB containing 12 mM Glc for 2 hrs (stimulatory). Secretagogues (20 nM exendin-4, TLQP-21, AQEE-30) were added where indicated. Cells were washed in PBS, collected by centrifugation, and lysed in 50 uL RIPA containing 5 mM EDTA. Total protein was determined by BCA (Pierce). Insulin was measured from SAB using the Coat-a-Count kit (Siemens). Insulin content was determined from a 1:500 dilution of total protein."}, "primary rat islets [2]": {"system": "primary rat islets", "assay": "cAMP level determination in primary rat islets", "conditions": "16.7 mM Glc, 30 min, TLQP-21 50 nM, exendin-4 20 nM, relative to untreated control", "protocol": "Primary rat islets and 832/3 cells were prepared as stated for insulin secretion measurements except the incubation at stimulatory glucose was for 30 min in the presence of 0.1 mM isobuytlmethylxanthine (IBMX). Rat islets were rapidly transferred to 0.2 mL of ice-cold 80% ethanol and stored at −80° C. until assayed. Samples were evaporated to dryness and assayed using the cAMP EIA kit from Biomedical Technologies, Inc. using acetylation protocol. For 832/3 cells, the secretion buffer was removed and rapidly replaced with 0.5 mL of 80% ethanol. Cells were stored at −80° C. until assayed. 0.2 mL of sample was evaporated to dryness and assayed for cAMP using the non-acetylation protocol."}}}
{"molecule": "COc1cc([C@@H]2c3cc4c(cc3[C@@H](O[C@@H]3O[C@@H]5CO[C@@H](C)O[C@H]5[C@H](O)[C@H]3O)[C@H]3COC(=O)[C@H]23)OCO4)cc(OC)c1O", "note": "[etoposide]", "values": [{"measurement": "increase in Annexin V positive cells over untreated (DMSO) control", "setting": "isolated rat islets; etoposide 0.2 mM alone", "result": 18, "unit": "%"}, {"measurement": "islet cells staining positive for Annexin V", "setting": "isolated rat islets; etoposide 0.2 mM alone", "result": 35, "unit": "%"}]}
{"molecule": "AQEE-30: second C-terminal VGF peptide; SEQ ID NO:14 is rat AQEE-30 polypeptide (AQARRAQEEADAEERRLQEQEELENYIEHVLLHRP; listed as Rattus norvegicus)", "values": [{"measurement": "ability to potentiate GSIS", "setting": "primary rat islets [1]", "result": "unable to augment GSIS"}, {"measurement": "ability to potentiate GSIS", "setting": "832/3 cells", "result": "unable to augment GSIS"}]}
{"molecule": "exendin-4", "values": [{"measurement": "enhancement of GSIS", "setting": "primary rat islets [1]; 20 nM", "result": 1.8, "unit": "fold"}, {"measurement": "increase in cAMP levels", "setting": "primary rat islets [2]", "result": "~3", "unit": "fold"}, {"measurement": "protection against etoposide-mediated apoptosis", "setting": "isolated rat islets; co-culture with etoposide 0.2 mM", "result": "comparable level of protection"}]}
